Earlier results on one compound are cited in patent US20260014155A1, “TICAGRELOR SOLID DISPERSION, METHOD FOR PREPARING SAME, AND USE THEREOF” (WISDOM PHARMACEUTICAL CO., LTD., priority 2022, published 2026).

The conditions of this data set: low solubility and low permeability.

On to `CCCSc1nc(N[C@@H]2C[C@H]2c2ccc(F)c(F)c2)c2nnn([C@@H]3C[C@H](OCCO)[C@@H](O)[C@H]3O)c2n1` [ticagrelor, (1S,2S,3R,5S)-3-[7-{[(1R,2S)-2-(3,4-difluorophenyl)cyclopropyl]amino}-5-(propylthio)-3H-[1,2,3]-triazolo[4,5-d]pyrimidin-3-yl]-5-(2-hydroxyethoxy)cyclopentane-1,2-diol], for which the biopharmaceutical classification entry is “BCS class 4”.
